Data as given in patent US5830868A, “Substituted DI- and tripeptide inhibitors of protein: farnesyl transferase” (Warner-Lambert Company, priority 1996, dated 1998).
Numbered stars: 1 amine (or outer) side, 2 acyl side, 3 side chain; on linkers, the order of the positions; unused ones are H or OH. Square brackets hold non-standard residues; d marks the D form. Peptide text beside a SMILES is read from it. * marks the point of attachment. Bip = N[C@@H](Cc1ccc(-c2ccccc2)cc1)C(=O)O; His(τ-Me) = Cn1cnc(C[C@H](N)C(=O)O)c1; Hydrocinnamoyl = O=C(CCc1ccccc1)*; 3Pal = N[C@@H](Cc1cccnc1)C(=O)O; NHPhenethyl = c1ccc(CCN*)cc1; Cbz = O=C(OCc1ccccc1)*; CO = O=C([*:1])[*:2]; NHBn = c1ccc(CN*)cc1; Bn = c1ccc(C*)cc1

Target: T1, rat brain farnesyl protein transferase (PFT) (Rattus norvegicus, UniProt Q02293+Q04631)
T1 construct: 40-fold purified rat brain farnesyl protein transferase; from tissue; host or cells: rat brain
Test: PFT inhibitory activity assay (radiolabeled farnesyl pyrophosphate, biotinyl peptide, streptavidin beads)
Format: biochemical
Details: 40-fold purified rat brain enzyme; 0.12 μM [3H]FPP, 0.1 μM biotinyl-Ahe-Tyr-Lys-Cys-Val-Ile-Met; 37° C., 30 minutes; read-out: IC50 (μM) against PFT
Protocol: The PFT inhibitory activity of compounds of Formula I was assayed in 30 mM potassium phosphate buffer, pH 7.4, containing 7 mM DTT, 1.2 mM MgCl2, 0.1 mM leupeptin, 0.1 mM pepstatin and 0.2 mM phenylmethylsulfonyl fluoride. Assays were performed in 96 well plates (Wallec) and employed solutions composed of varying concentrations of a compound of Formula I in 100% DMSO. Upon addition of both substrates, radiolabeled farnesyl pyrophosphate ([1-^3 H], specific activity 15--30 Ci/mmol, final concentration 0.12 μM) and (biotinyl)-Ahe-Tyr-Lys-Cys-Val-Ile-Met peptide (final concentration 0.1 μM), the enzyme reaction was started by addition of 40-fold purified rat brain farnesyl protein transferase. After incubation at 37° C. for 30 minutes, the reaction was terminated by diluting the reaction 2.5-fold with a stop buffer containing 1.5M magnesium acetate, 0.2M H3 PO4, 0.5% BSA, and strepavidin beads (Amersham) at a concentration of 1.3 mg/mL. After allowing the plate to settle for 30 minutes at room temperature, radioactivity was quantitated on a microBeta counter (model 1450, Wallec). Compounds of Formula I show IC50 values of 0.5 nM to 80 μM (see data table) in this assay and are thus valuable inhibitors of protein: farnesyl transferase enzyme which may be used in the medical treatment of tissue proliferative diseases, including cancer and restenosis.

T1 sequence (Q02293 whole entry, one chain of several): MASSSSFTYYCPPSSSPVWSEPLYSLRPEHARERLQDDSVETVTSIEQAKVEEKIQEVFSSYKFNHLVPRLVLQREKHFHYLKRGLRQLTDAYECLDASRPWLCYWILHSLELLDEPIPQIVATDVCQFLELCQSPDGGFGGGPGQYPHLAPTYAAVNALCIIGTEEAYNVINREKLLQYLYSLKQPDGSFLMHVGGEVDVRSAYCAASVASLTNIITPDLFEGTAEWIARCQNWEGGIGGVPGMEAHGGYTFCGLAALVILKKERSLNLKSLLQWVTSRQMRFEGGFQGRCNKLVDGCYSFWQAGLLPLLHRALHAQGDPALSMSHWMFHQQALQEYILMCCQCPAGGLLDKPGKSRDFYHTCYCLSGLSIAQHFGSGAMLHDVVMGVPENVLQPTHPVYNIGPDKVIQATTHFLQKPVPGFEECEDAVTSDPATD

Row | Compound | IC50 [µM]
1 | CCNC(=O)[C@H](COCc1ccccc1)NC(=O)[C@H](Cc1ccc(OCc2ccccc2)cc1)NC(=O)[C@@H](Cc1c[nH]cn1)NC(=O)OCc1ccccc1 [Example 12, N-Ethyl-Nα -[N-[N-[(Phenylmethoxy)carbonyl]-D-histidyl]-O-(phenylmethyl)-L-tyrosyl]-O-(phenylmethyl)-L-serinamide] (Cbz-[dH]-Tyr(Bn)-Ser(Bn)-NHEt) | 0.028
2 | COC(=O)[C@H](COCc1ccccc1)NC(=O)[C@H](Cc1ccc(OCc2ccccc2)cc1)NC(=O)[C@H](Cc1cn(C)cn1)NC(=O)OCc1ccccc1 [Example 13, N-[N-[1-Methyl-N-[(phenylmethoxy)carbonyl]l-L-histidyl]-O-(phenylmethyl)-L-tyrosyl]-O-(phenylmethyl)-L-serine. methyl ester] (Cbz-[His(τ-Me)]-Tyr(Bn)-Ser(Bn)-OMe) | 0.083
3 | COC(=O)[C@H](COCc1ccccc1)NC(=O)[C@H](CCc1ccc(OCc2ccccc2)cc1)NC(=O)[C@@H](Cc1c[nH]cn1)NC(=O)OCc1ccccc1 [Example 15] | 30
4 | COC(=O)[C@H](COCc1ccccc1)NC(=O)[C@H](Cc1ccc(-c2ccccc2)cc1)NC(=O)[C@H](Cc1c[nH]cn1)NC(=O)OCc1ccccc1 [Example 16, N-[4-Phenyl-N-[N-[(phenylmethoxy)carbonyl]-L-histidyl]-L-phenylalanyl]-O-(phenylmethyl)-L-serine, methyl ester] (Cbz-His-[Bip]-Ser(Bn)-OMe) | 0.6
5 | COC(=O)[C@H](COCc1ccccc1)NC(=O)[C@H](Cc1ccc(OCc2ccccc2)cc1)NC(=O)[C@H](Cc1c[nH]cn1)NC(=O)NCc1ccccc1 [Example 17, N-[O-(Phenylmethyl)-N[N-[[(Phenylmethyl)amino]-carbonyl]-L-histidyl]-L-tyrosyl]-O-(phenylmethyl)-serine, methyl ester] ({NHBn-CO}-His-Tyr(Bn)-Ser(Bn)-OMe) | 0.039
6 | COC(=O)[C@H](COCc1ccccc1)NC(=O)[C@H](Cc1ccc(OCc2ccccc2)cc1)NC(=O)[C@H](Cc1c[nH]cn1)NC(=O)CCc1ccccc1 [Example 18, N-[N-[N-(1-Oxo-3-phenylpropyl)-L-histidyl]-O-(phenylmethyl)-L-tyrosyl]-O-(phenylmethyl)-L-serine. methyl ester] (Hydrocinnamoyl-His-Tyr(Bn)-Ser(Bn)-OMe) | 0.82
7 | O=C(N[C@@H](Cc1c[nH]cn1)C(=O)N[C@@H](Cc1ccc(OCc2ccccc2)cc1)C(=O)NCCOCc1ccccc1)OCc1ccccc1 [Example 19, Nα -[-N-[(Phenylmethoxy)carbonyl]-L-histidyl]-O-(phenylmethyl)-N-[2-(phenylmethoxy)ethyl]-L-tyrosinamide] | 0.31
8 | CN(C(=O)OCc1ccccc1)[C@H](Cc1c[nH]cn1)C(=O)N[C@@H](Cc1ccc(OCc2ccccc2)cc1)C(=O)NCCOCc1ccccc1 [Example 21, Nα -[N-Methyl-N[(phenylmethoxy)carbonyl]-D-histidyl]-N-[2-(phenylmethoxy)ethyl]-O-(phenylmethyl)-L-tyrosinamide] | 0.31
9 | C[C@@](Cc1ccc(OCc2ccccc2)cc1)(NC(=O)[C@@H](Cc1c[nH]cn1)NC(=O)OCc1ccccc1)C(=O)NCCOCc1ccccc1 [Example 22] | 0.37
10 | O=C(N[C@@H](Cc1c[nH]cn1)C(=O)N[C@@H](Cc1ccc(OCc2ccccc2)cc1)C(=O)NCCc1ccccc1)OCc1ccccc1 [Example 23, N-(2-Phenylethyl)-N60-[-N-[(phenylmethoxy)carbonyl]-L-histidyl]-O-(phenylmethyl)-L-tyrosinamide] (Cbz-His-Tyr(Bn)-NHPhenethyl) | 1.9
11 | COC(=O)[C@H](Cc1cccnc1)NC(=O)[C@H](Cc1ccc(OCc2ccccc2)cc1)NC(=O)[C@H](Cc1c[nH]cn1)NC(=O)OCc1ccccc1 [Example 24, N-[N-[N-[(Phenylmethoxy)carbonyl]-L-histidyl]-O-(phenylmethyl)-L-tyrosyl]-3-(3-pyridinyl)-L-alanine, methyl ester] (Cbz-His-Tyr(Bn)-[3Pal]-OMe) | 1
12 | CN(CCOCc1ccccc1)C(=O)[C@H](Cc1ccc(OCc2ccccc2)cc1)NC(=O)[C@H](Cc1c[nH]cn1)NC(=O)OCc1ccccc1 [Example 29, Nα -[N-[(Phenylmethoxy)carbonyl]-L-histidyl]-O-(phenylmethyl)-N-methyl-N-[2-(phenylmethoxy)ethyl]-L-tyrosinamide] | 3
13 | PhCH2 CH2 NHCO--D--His--Tyr(OBn)CONHCH2 CH2 [5 (27)] | 30
